Reference: patent US5637591A, “Antimicrobial and anticollagenase activity of phenazine-5, 10-dioxide and derivatives” (Fuji ImmunoPharmaceuticals Corp., priority 1995, dated 1997)
Converted amounts (≈) assume the structure as drawn. Read-outs that look alike come from different tables or passages of the source.

How the values were obtained:
[1] = system: Escherichia coli strain DH5α; test: zone inhibition method on agar plate; assay type: cell-based; details: 10 μl of 1 mg/ml on 3 mm paper disk, overnight 37° C., radius from center of disk; for zone of inhibition at 1000 µg/mL: Escherichia coli, read-out: E. coli Clear Zone
Method: (§1) Solutions of the agents were tested for activity against Escherichia coli strain DH5α by a zone inhibition method, and against P. gingivalis strain 2561 by addition to plating medium to determine minimum inhibitory concentrations (M/C). For the zone inhibition study, a suspension of E. coli was spread on the surface of an agar plate. A 3 mm diameter paper disk was placed on the seeded agar surface, and 10 μl of solution of each compound formulated at 1 mg/ml was added to the disk. Plates were incubated overnight at 37° C. The radius of the zone of inhibition was measured from the center of the disk to the edge of the E. coli bacterial lawn. For determination of MIC, drug solutions were mixed with plating medium to produce a range of final drug concentrations. Media with drug were plated in the wells of 24-well plates. A drop of bacterial suspension containing 2-5×10^2 CFU P. gingivalis was placed on each well. Plates were incubated 1 week in an anaerobic chamber at 37° C.

[2] = system: anaerobic bacterial species; test: anaerobic liquid culture growth inhibition, whole panel; assay type: cell-based; details: all species of Table 4; read-out: susceptibilities (IC50) of the various anaerobic species
Method: The concentrations of the various preferred substituted phenazine-5,10-dioxide compounds necessary to inhibit growth by 50% (IC50 values) were determined for a variety of anaerobic bacterial species. Compounds were individually diluted into liquid growth media, which along with suspensions of bacterial monocultures were added to the wells of 96-well plates. Cultures were incubated anaerobically overnight, and growth was assessed by measuring optical density at 650 nm. IC50 values were determined as the compound concentration producing a turbidity reading equal to 50% of the maximum. Again, results with Tetracycline are shown for comparison.

[3] = system: P. gingivalis; test: bone loss after oral colonization with P. gingivalis in mice, systemic administration; assay type: in vivo, BALB/c mice
Method: An animal model for testing the antimicrobial activity of the invention against P. gingivalis was conducted by inducing oral colonization of the microbe in BALB/c mice. Drug (2-methylphenazine-5,10-dioxide or Tetracycline) or control (2.5% cyclodextran) was administered intraperitoneally once each day for 25 days (2-methylphenazine-5,10-dioxide) or 40 days (Tetracycline). On the day following the last dose administration, the rear molars of the mice were swabbed and the swabs incubated in a growth medium to assess the presence of P. gingivalis. Mice were then sacrificed and jaw bones harvested for evaluation of bone loss.

[4] = system: P. gingivalis strain 2561; test: minimum inhibitory concentration by addition to plating medium; assay type: cell-based; details: for MIC: Porphyromonas gingivalis, 2561, 168 h
Method: as §1

[5] = system: Bacteroides fragilis; test: anaerobic liquid culture growth inhibition, OD 650 nm; assay type: cell-based; details: read-out: IC50 Bacteroides fragilis
[6] = system: purified collagenase from P. gingivalis; test: anti-collagenase activity, 3H-collagen hydrolysis; assay type: biochemical; details: for % Inhibition of collagenase: 24 h at 25° C.
Method: Collagenase activity in the presence of the preferred compound 2-aminophenazine-5,10-dioxide and in the presence of Tetracycline were measured by incubating ^3 H-collagen with purified collagenase from P. gingivalis using increasing drag concentrations. After 24 h at 25° C., unhydrolyzed collagen fibers were removed from the mixture by centrifugation, and the specific activity of ^3 H in the supernatant quantified as a measure of hydrolyzed collagen. Percent inhibition was determined by subtracting the value in the presence of test compound from the control value, then dividing this quantity by the control value [(control-compound)/control×100].

[7] = system: Peptostreptococcus anaerobius; test: anaerobic liquid culture growth inhibition, OD 650 nm; assay type: cell-based; details: read-out: IC50 Peptostreptococcus anaerobius
[8] = system: Clostridium perfringens; test: microbe, parasite or virus in culture; assay type: cell-based; details: read-out: IC50 Clostridium perfringens
[9] = system: Porphyromonas gingivalis RB-22D-1; test: anaerobic liquid culture growth inhibition, OD 650 nm; assay type: cell-based
[10] = system: Bacteroides levii; test: as above; assay type: cell-based; details: Porphyromonas levii, read-out: IC50 Bacteroides levii
[11] = system: Fusobacterium necrophorum; test: as above; assay type: cell-based; details: read-out: IC50 Fusobacterium necrophorum
[12] = system: Fusobacterium nucleatum; test: as above; assay type: cell-based; details: read-out: IC50 Fusobacterium nucleatum
[13] = system: Porphyromonas gingivalis 2561; test: as above; assay type: cell-based
[14] = system: A. act and/or P. gin; details: background summary; cited from earlier work
[15] = MIC on a molar basis, read-out: P. gingivalis MIC
[16] = complete inhibition of growth, 1 week anaerobic, 37° C., read-out: P. gingivalis MIC
[17] = RB22D1, anaerobic overnight, OD 650 nm, read-out: IC50 Porphyromonas gingivalis RB-22D-1
[18] = Porphyromonas gingivalis, 2561, anaerobic overnight, OD 650 nm, read-out: IC50 Porphyromonas gingivalis 2561

SMILES	zone of inhibition at 1000 µg/mL [1]	IC50 [8]	MIC [4, 15]	MIC [4, 16]	IC50 ([5]; anaerobic overnight, OD 650 nm)	IC50 ([7]; anaerobic overnight, OD 650 nm)	IC50 [9, 17]	IC50 ([10]; anaerobic overnight, OD 650 nm)	IC50 ([11]; anaerobic overnight, OD 650 nm)	IC50 ([12]; anaerobic overnight, OD 650 nm)	IC50 [13, 18]	Activity against A. act and/or P. gin [14]	other results
CN(C)[C@@H]1C(O)=C(C(N)=O)C(=O)[C@@]2(O)C(O)=C3C(=O)c4c(O)cccc4[C@@](C)(O)[C@H]3C[C@@H]12 [Tetracycline, reference compound]	10 mm	0.06 µg/mL (≈ 0.135 µM)	–	–	–	–	–	–	–	–	–	–	IC50 [2]: ≤ 0.1 µg/mL; Bone Loss (BLU) Average ± SD ([3]; Bacterial Infection, 5 mg/kg intraperitoneally once each day × 40 d, 0.33 mm = 1 BLU): 7.21 ± 0.73 BLU; effect of treatment on bone loss ([3]; infected mice, IP daily, 25 d (2-methylphenazine-5,10-dioxide) or 40 d (Tetracycline)): did not effect the bone loss; MIC ([4]; read-out: P. gingivalis MIC): 0.5 µg/mL; MIC ([4]; read-out: P. gingivalis MIC (μM)): 1.13 µM; IC50 [5]: 0.1 µg/mL (≈ 0.225 µM); % Inhibition of collagenase ([6]; 1 μg/ml): 7.6%; % Inhibition of collagenase ([6]; 10 μg/ml): 31%; % Inhibition of collagenase ([6]; 100 μg/ml): 68%; anti-collagenase IC50 ([6]; estimated from Table 5): about 56 μg/ml; IC50 [7]: 0.03 µg/mL (≈ 0.0675 µM); IC50 ([9]; RB22D1, read-out: IC50 Porphyromonas gingivalis RB-22D-1): 0.06 µg/mL (≈ 0.135 µM); IC50 [10]: 0.1 µg/mL (≈ 0.225 µM); IC50 [11]: 0.03 µg/mL (≈ 0.0675 µM); IC50 [12]: 0.16 µg/mL (≈ 0.36 µM); IC50 ([13]; Porphyromonas gingivalis, 2561, read-out: IC50 Porphyromonas gingivalis 2561): 0.02 µg/mL (≈ 0.045 µM)
[O-][n+]1c2ccccc2[n+]([O-])c2c3cccnc3c(O)cc21 [2-hydroxy-3,4-iminopropylphenazine-5,10-dioxide]	17 mm	0.1 µg/mL (≈ 0.358 µM)	0.112 µM	0.031 µg/mL	1 µg/mL (≈ 3.58 µM)	0.1 µg/mL (≈ 0.358 µM)	0.18 µg/mL (≈ 0.645 µM)	2 µg/mL (≈ 7.16 µM)	6.5 µg/mL (≈ 23.3 µM)	> 10 µg/mL	0.08 µg/mL (≈ 0.286 µM)	–	–
CC1(C)S[C@@H]2[C@H](NC(=O)Cc3ccccc3)C(=O)N2[C@H]1C(=O)O [Penicillin G]	–	–	–	–	–	–	–	–	–	–	–	ineffective	–
Cc1ncc([N+](=O)[O-])n1CCO [Metronidazole]	–	–	–	–	–	–	–	–	–	–	–	ineffective	–
[O-][n+]1c2ccccc2[n+]([O-])c2ccccc21 [phenazine-5,10-dioxide]	19 mm	1 µg/mL (≈ 4.71 µM)	0.296 µM	0.063 µg/mL	3 µg/mL (≈ 14.1 µM)	0.2 µg/mL (≈ 0.942 µM)	–	2.5 µg/mL (≈ 11.8 µM)	0.45 µg/mL (≈ 2.12 µM)	3.5 µg/mL (≈ 16.5 µM)	–	–	–
COc1ccc2c(c1)[n+]([O-])c1ccc(N)cc1[n+]2[O-] [2-amino-7-methoxyphenazine-5,10-dioxide, 2-amino,7-methoxyphenazine-5,10-dioxide]	–	–	–	–	–	–	0.08 µg/mL (≈ 0.311 µM)	–	–	–	0.015 µg/mL (≈ 0.0583 µM)	–	–
[O-][n+]1c2ccccc2[n+]([O-])c2cc(O)ccc21 [2-hydroxyphenazine-5,10-dioxide]	15 mm	1 µg/mL (≈ 4.38 µM)	0.07 µM	0.016 µg/mL	5 µg/mL (≈ 21.9 µM)	0.45 µg/mL (≈ 1.97 µM)	0.22 µg/mL (≈ 0.964 µM)	0.2 µg/mL (≈ 0.876 µM)	0.45 µg/mL (≈ 1.97 µM)	> 10 µg/mL	0.62 µg/mL (≈ 2.72 µM)	–	concentration range of activity against P. gingivalis ([4]; molar basis): nanomolar concentration range
CC1(C)S[C@@H]2[C@H](NC(=O)[C@H](N)c3ccc(O)cc3)C(=O)N2[C@H]1C(=O)O [Amoxicillin]	–	–	–	–	–	–	–	–	–	–	–	ineffective	–
[O-][n+]1c2ccccc2[n+]([O-])c2cc(O)c(O)cc21 [2,3-dihydroxyphenazine-5,10-dioxide]	–	> 10 µg/mL	–	–	> 10 µg/mL	> 10 µg/mL	2 µg/mL (≈ 8.19 µM)	> 10 µg/mL	> 10 µg/mL	> 10 µg/mL	5 µg/mL (≈ 20.5 µM)	–	E. coli Clear Zone [1]: inactive; antimicrobial activity against P. gingivalis [4]: inactive; P. gingivalis MIC (μM) ([4]; MIC on a molar basis): inactive; P. gingivalis MIC ([4]; complete inhibition of growth, 1 week anaerobic, 37° C.): inactive
